{
  "source": "patent US20190201419A1",
  "about": "“COMPOUND AND METHOD FOR THE TREATMENT AND DIAGNOSIS OF NEURODEGENERATIVE CONDITIONS” (Swansea University, priority 2013, published 2019)",
  "assay_type_in_all_cases": "cell-based, mouse",
  "key": {"[1]": {"test_system": "Nur-related factor 1 (Nurr1)/retinoid X receptor (Rxr) heterodimers", "assay": "DR5 element luciferase reporter assay (Nurr1/Rxr) in SN4741 neural cells", "settings": "10 μM", "from_the_text": "Luciferase Reporter Assay."}, "Vdr": {"target": "T1, Vdr (Homo sapiens, UniProt P11473)", "T1 sequence (P11473 1-427)": "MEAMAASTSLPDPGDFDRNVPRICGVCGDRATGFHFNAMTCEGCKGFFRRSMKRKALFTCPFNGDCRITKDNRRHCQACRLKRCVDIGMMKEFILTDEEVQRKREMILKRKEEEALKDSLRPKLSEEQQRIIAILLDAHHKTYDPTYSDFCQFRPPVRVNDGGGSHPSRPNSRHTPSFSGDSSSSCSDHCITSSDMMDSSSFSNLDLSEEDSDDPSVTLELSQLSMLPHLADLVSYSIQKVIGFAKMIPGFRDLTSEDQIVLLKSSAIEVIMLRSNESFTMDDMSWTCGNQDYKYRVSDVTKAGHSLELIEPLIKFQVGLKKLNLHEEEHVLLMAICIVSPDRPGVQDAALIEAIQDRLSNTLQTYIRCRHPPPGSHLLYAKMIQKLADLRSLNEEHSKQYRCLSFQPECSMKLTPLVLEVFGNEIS", "assay": "Vdr luciferase reporter assay in SN4741 neural cells", "settings": "10 μM", "description": "(§1) Luciferase Reporter Assay. The ability of oxysterols and their acidic metabolites to activate several nuclear receptors i.e. Lxrα and β, Fxr, Vdr, Nurr1 was tested in luciferase assays. Transient transfection studies were performed in the mouse neuronal cell line SN4741. This cell line was selected as the oxysterols and acidic metabolites tested were initially identified in CSF. Cells were plated in 24-well plates ([…] cells/well) 24 hr before transfection and transfected with 1 μg of plasmid DNA/well complexed with 2 μL of Lipofectarnine 2000 (Invitrogen), Cells were transfected with 400 ng of a Lxr-, Fxr-, Vdr- or Nurr1-responsive luciferase reporter construct, and 200 ng of Lxrα, Lxrβ, Fxr, Vdr or Nurr1. A reporter gene expressing the Renilla luciferase (pRL-TK, Promega) was co-transfected in all experiments as an internal control for normalization of transfection efficiency. After a 12 h incubation, the lipid/DNA mix was replaced with fresh 2.5% serum medium containing vehicle or appropriate ligand (10 μM), as specified in each experiment. […] Luciferase activities were assayed 24 h later using the Dual-Luciferase Reporter Assay System (Promega), following the manufacturer's protocol."}, "Fxr": {"target": "T2, Fxr (Homo sapiens, UniProt Q96RI1)", "T2 construct": "expressed in transfected cells; host or cells: SN4741 mouse neuronal cell line", "T2 sequence (Q96RI1 1-486)": "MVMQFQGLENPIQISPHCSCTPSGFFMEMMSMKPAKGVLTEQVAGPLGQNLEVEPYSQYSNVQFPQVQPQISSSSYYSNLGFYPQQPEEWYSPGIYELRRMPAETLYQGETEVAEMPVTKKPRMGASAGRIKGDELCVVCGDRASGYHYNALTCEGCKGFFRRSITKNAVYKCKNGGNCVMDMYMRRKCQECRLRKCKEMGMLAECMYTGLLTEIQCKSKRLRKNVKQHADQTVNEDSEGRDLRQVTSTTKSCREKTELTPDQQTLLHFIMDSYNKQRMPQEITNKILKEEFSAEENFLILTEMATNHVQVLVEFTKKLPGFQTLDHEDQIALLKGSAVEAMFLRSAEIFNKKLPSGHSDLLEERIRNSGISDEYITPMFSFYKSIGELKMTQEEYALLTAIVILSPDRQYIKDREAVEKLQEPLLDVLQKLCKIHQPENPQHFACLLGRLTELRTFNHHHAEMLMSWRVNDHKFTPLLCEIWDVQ", "assay": "Fxr luciferase reporter assay in SN4741 neural cells", "settings": "24 h", "description": "as §1"}},
  "data": [
    {"smiles": "CC1=C(/C=C/C(C)=C\\C=C\\C(C)=C\\C(=O)O)C(C)(C)CCC1", "note": "[9-cis-RA, 9-cis-retinoic acid]", "values": [
      {"measurement": "DR5 (Nurr1/Rxr) luciferase reporter activation", "setting": "[1]", "value": "activated this reporter"}
    ]},
    {"smiles": "C[C@H](CCC(=O)O)[C@H]1CC[C@H]2[C@@H]3CC[C@@H]4C[C@H](O)CC[C@]4(C)[C@H]3CC[C@]12C", "note": "[LCA, lithocholic acid]", "values": [
      {"measurement": "Vdr activation, luciferase reporter", "setting": "Vdr", "value": "activated a vitamin D receptor (Vdr) luciferase reporter"}
    ]},
    {"smiles": "C[C@H](CCC(=O)O)[C@H]1CC[C@H]2[C@@H]3CC=C4C[C@@H](O)CC[C@]4(C)[C@H]3CC[C@]12C", "note": "[3βH-Δ^5-BA, 3β-hydroxychol-5-en-24-oic acid]", "values": [
      {"measurement": "Fxr activation, luciferase reporter", "setting": "Fxr", "value": "also activated Fxr, but was less potent than CDCA"}
    ]}
  ]
}
